Results reported in a melting point compilation (Tetko et al.; mined from patent text by program, amines drawn as free bases though some values may be those of a salt).

Row | Compound | melting point [°C]
1 | CCCN(c1nc(-c2ccc(OC)cc2Cl)c(C)s1)c1cc(C(C)=O)ccc1OC | 50
2 | O=S(=O)(/C=C/c1ccccc1)CS(=O)(=O)/C=C/c1ccccc1 | 128 to 130
3 | CCCn1cc(Cc2ccc(C(=O)NS(=O)(=O)c3ccccc3Cl)cc2OC)c2cc(CCC(C)C(=O)N(C)C)ccc21 (centres undefined) | 95 to 98
4 | CC(O)Cc1ccc2oc(=O)[nH]c2c1 (centres undefined) | 133 to 134
5 | CCOC(=O)c1cn2c3c(cc(C)cc3c1=O)C1CCCCC12 (centres undefined) | 107 to 109
6 | CCCCCCCCCCCCCCCCNc1ccc(C2=NCCO2)cc1 | 123 to 125
7 | CSCc1cn(C)c2ccccc2c1=O | 118 to 120
8 | COc1ccccc1[C@@]1(O)[C@H](O)CC(c2ccccc2)(c2ccccc2)[C@@H]2CN(C(=O)Cc3cccc4ccccc34)C[C@@H]21 (racemic) | 188 to 190
9 | COC(=O)c1ccc(OCC(=O)NN=C2C(=O)Nc3ccc(I)cc32)cc1 | 288
10 | O=C(C(Cl)(Cl)Cl)C1(c2ccc(Cl)cc2)C=CC=N1 (centres undefined) | 166 to 168
11 | CCCCc1sc2ccc([N+](=O)[O-])cc2c1C(=O)c1ccc(O)cc1 | 147
12 | NC(=O)c1cccnc1Oc1cccc(Cl)c1 | 225 to 228
13 | Cc1ccccc1Cn1c(OCc2ccccc2)noc1=O | 77 to 78
14 | COC1C(O)C(CO)OC1n1cnc2c(N)nc(F)nc21 (centres undefined) | 239 to 241
15 | Cc1cc(C)c2c(c1O)C(N1CCCC1)C1CCCCC21 (centres undefined) | 96 to 97
16 | C#CCOC(=O)c1cccnc1C1=NC(C)(C(C)C)C(=O)N1 (centres undefined) | 188 to 190
17 | N#Cc1ccc(OC[C@H](O)CO)cc1 | 63 to 65
18 | Cn1cncc1C(O)(c1ccc(Cl)cc1)c1ccc2nc(-c3cccnc3)nc(-c3cccc(Cl)c3)c2c1 (centres undefined) | 178
19 | Oc1cccc(CCCc2cc(C(c3ccccc3)c3ccccc3)on2)c1 | 114 to 117
20 | Cc1ccc(-n2nc(C(C)(C)C)cc2NC(=O)Nc2ccc(-c3c(C(N)=O)[nH]c4ccccc34)cc2)cc1 | > 260
21 | COC(=O)c1ccc(CN2C(=O)C3(COc4cc5c(cc43)OCCO5)c3ccccc32)cc1 (centres undefined) | 167 to 169
22 | COC(=O)C=CC1=C(N)CCC1=O | 278 to 279
23 | CCOC(=O)c1c(C)[nH]c(CC)c1CC | 104 to 106
24 | CC(C)c1ccc(OCCCN2CCN(c3ccc(Cl)nn3)CC2)cc1 | 125 to 127
25 | CCc1ccccc1C=C1CCN2Cc3ccccc3N=C12 | 224 to 225

Row | Compound | melting point [°C]
26 | COc1cc(Nc2nccc(-c3ccc(N4CCCC(CO)C4)nc3)n2)cc(OC)c1OC (centres undefined) | 183 to 184
27 | CC(C)C[C@H](NC(=O)OCc1ccccc1)C(=O)NC(Cc1ccc(F)cc1)C(=O)CSCc1ccco1 (some centres undefined) | 101
28 | Cn1nc2n(c1=O)-c1ccc(Cl)cc1C(c1ccccc1F)=CC2 | 142 to 143
29 | CCCCCCCS(=O)(=O)c1nn2c(=O)c(OC)cnc2s1 | 106 to 109
30 | O=C(Cl)Cc1ccccc1Br | 79
31 | Cc1c(Cl)cnc(N)c1F | 136 to 138
32 | O=C(O)CC1CCc2c(c3ccccc3n2Cc2ccccc2)C1 (centres undefined) | 156 to 158
33 | COc1cc(N)c(Cl)cc1C(=O)NCCC1CN(Cc2ccccc2)CCO1 (centres undefined) | 68 to 72
34 | Nc1cc(=O)[nH]c(=O)n1-c1ccccc1 | > 280
35 | O=C(C#Cc1ccc(-c2ccc(Cl)cc2)cn1)Nc1ccc(CN2CCC(O)CC2)cc1 | 186 to 190
36 | CCCCCCCCCCCCCCCCS(=O)(=O)Nc1cccc2ccc(O)cc12 | 104 to 107
37 | C=C(CCC(=O)N1C(=O)OC[C@H]1c1ccccc1)c1ccc(F)cc1F | 50 to 55
38 | COCCOc1ccc(/C=C/C(=O)NS(=O)(=O)c2ccccc2Cl)c(Oc2ncc(C(F)(F)F)cc2Cl)c1 | 168 to 169
39 | COc1ccc(-c2cc(C(=O)Nc3cccc(F)n3)c3ccccc3n2)cc1 | 174 to 176
40 | O=C1N(Cc2ccc(C(F)(F)F)o2)c2cc3c(cc2C12COc1cc4c(cc12)OCCO4)OCCO3 (centres undefined) | 176 to 178
41 | CN(CC1COc2ccccc2O1)S(N)(=O)=O (centres undefined) | 97 to 98
42 | CC1(N)CN(c2c(F)cc3c(=O)c(C(=O)O)cn(-c4nc(N)c(F)cc4F)c3c2Cl)C1 | 280
43 | Cc1cc(-c2cc(=O)n(C)[nH]2)c(F)cc1Cl | 155 to 156
44 | COC(=O)C(C)Oc1ncn(-c2cccc(C(F)(F)F)c2)n1 (centres undefined) | 135 to 137
45 | Nc1ccc(F)c(-n2cc(C(=O)O)c(=O)c3cc(F)c(F)c(Cl)c32)n1 | 228 to 230
46 | CC(C)C(NC(=O)c1ccc(C(=O)NCC(=O)OCc2ccccc2)cc1)C(=O)N(CC(=O)NC(C(=O)C(F)(F)F)C(C)C)C1Cc2ccccc2C1 (mixture of isomers) | 64 to 66
47 | CCOC(=O)C1(O)c2ccccc2S(=O)(=O)N1C(C)(C)C (centres undefined) | 93 to 95
48 | COc1ccccc1NC(=O)Nc1ccc(C2=CCN(C(=O)Nc3ccc(OCCO)cc3Cl)CC2)cc1 | 120 to 125
49 | CCCN(CCCCNC(=O)NC1Cc2ccccc2C1)C1CCc2ncsc2C1 (centres undefined) | 93
